This note sets out measurements from patent US10450327B2, “Epidithiodioxopiperazine compound or its derivatives, and the use thereof” (priority 2011, dated 2019).

One data set deals with VEGFR2 and ERK. The data set is described as follows: VEGF-induced signaling, immunoblot, PrxII knocked down HAECs. The format is cell-based, human. As to conditions: 2 hours pretreatment, VEGF 10 minutes. How it is done:
The cells were rinsed with an ice-cold phosphate buffered saline (PBS) solution and then lysed in an extraction buffer solution containing 20 mM Hepes (pH 7.0), 1% Triton X-100, 150 mM NaCl, 10% glycerol, 1 mM EDTA, 2 mM EGTA, 1 mM DTT, 5 mM Na3VO4, 5 mM NaF, 1 mM AEBSF, aprotinin (5 μg/ml), and leupeptin (5 μg/ml). After being centrifuged at 12,000×g, the purified cell extracts were used for immunoblotting. In order to adjust the loading, the membranes were stripped by shaking them for 30 minutes at 60° C. in 67 mM Tris (pH 6.7), 2% SDS, and 100 mM 2-mercaptoethanol solution, and reprobed with an appropriate pan antibody.
In addition, the regulatory effects of GT on the PDGFRβ- and VEGFR2-mediated signaling pathway were examined. The GT treatment in HASMCs was quite different from PDGF-induced tyrosine phosphorylation that was enhanced by the PrxII knockdown (FIG. 12a). […] Conversely, the GT treatment in HAECs restored the VEGF-dependent activation of VEGFR2 and ERK that had been diminished by the PrxII knockdown (FIG. 12b). The effects of GT in vascular cell fuction were further validated.
Lastly, the effects of GT, a representative ETP compound, on vascular cells were compared with the effects of other compounds known as anti-oxidant compounds such as N-acetylcysteine or butylated hydroxyanisole, and the results are shown in FIG. 33. Immunoblotting was performed by pretreating HAECs in which PrxII was knocked down by injecting siRNA with each compound at the concentrations indicated in the graphs for two hours, and then treating with VEGF for 10 minutes. […] These comparative experiments led the inventors of the present invention to conclude that the distinguished […] function of the ETP compounds is clearly due to the PrxII-analogous activity, and additionally to the special chemical property of the dithioketopiperazine ring.

Data set [1] concerns human aortic smooth muscle cells (HASMCs). The data set is described as follows: Cytotoxicity (cell viability), HASMCs. As to conditions: compared with gliotoxin and A1 to A9. The format is cell-based. How it is done:
(§1) Most ETP compounds have been known to be cytotoxic to animal cells. Accordingly, the inventors of the present invention determined a safe concentration range of the epidithiodioxopiperazine compound or its derivatives in vascular cells. For this, human aortic smooth muscle cells (HASMCs) and human aortic endothelial cells (HAECs) were pretreated for 2 hours with various concentrations of gliotoxin or chaetocin, and A1 to A9 that are ETP derivatives according to the present invention, and cultured in a fresh medium for 24 hours followed by cell viability assay (FIGS. 6 to 10).

Another data set has as its system SK-MEL28 melanoma cells. The format is cell-based, human. As to conditions: at a concentration of 100 nM; tested 0, 100, 200, 500 and 1000 nM. The method, then: Specifically, after chaetocin and chetomin was treated with SK-MEL28 melanoma cells at different concentrations (0, 100, 200, 500 and 1000 nM), the cell viability was checked, and the result is shown in FIG. 54A.

A further data set deals with NADPH oxidase (NOX). The data set is described as follows: NADPH oxidase activity assay (whole cell superoxide production). The class given is cell-based, human. To be noted: HASMCs with PDGF-B and HAECs with VEGF-A; until concentrations increased up to 500 nM. How it is done:
Whole cell superoxide production was measured using an enhanced luminescence system (Diogenes, National Diagnostics). For the assay, the serum-starved cells were pre-incubated with a 100 μl Diogene reagent at 37° C. for 5 minutes. After being stimulated by the indicated growth factor, chemiluminescence was detected every second for 10 minutes with a TD-20/20 Luminometer (Turner Biosystems).
When HASMCs and HAECs were stimulated with PDGF-B and VEGF-A, respectively, the NOX activity increased approximately twofold. […] Thus, it was seen that these ETP compounds function as hydrogen peroxide reductase capable of replacing PrxII in both vascular cells, but the mechanism was not the inhibition of hydrogen peroxide producer NOX.

Data set [2] has as its system human aortic endothelial cells (HAECs). Put plainly: Cytotoxicity (cell viability), HAECs. As to conditions: compared with gliotoxin and A1 to A9. The class given is cell-based. The method, then:
as §1

For another data set, the system named is SK-MEL-28 (SK28) cells. The data set is described as follows: Melanoma proliferation and migration assay, SK28. The class given is cell-based, human. As to conditions: 100 nM, 1 hour pretreatment. The method, then: The extent of cell proliferation was measured using a WST-1 cell proliferation assay kit (Roche Diagnostics, USA) according to the protocol of the manufacturer. The number of cells was expressed as an absorbance value at 450 nm averaged from 3 wells after subtracting the turbidity at 600 nm. The chemotactic transmigration assay was performed in a 24-well Transwell culture chamber (Costar; polycarbonate membrane insert with 8-μm pore size). The bottom of the insert was coated with gelatin B (1 mg/ml) and air-dried for 1 hour. Retroviruses or transfection complexes were treated to melanoma cells (6×10^3). After 24 hours, the infected or transfected melanoma cells were serum-starved for 18 hours. A 20% FBS solution was added to bottom chambers including a basal medium containing 0.5% BSA. The upper chamber wells were each filled with a basal medium including 0.5% BSA. The Transwell chamber was incubated for 12 hours in a 37° C./5% CO2 incubator. After the incubation, the non-migrating cells at the top of the filter were removed. The cells that migrated onto the bottom of filter were fixed and stained with 0.6% hematoxylin and 0.5% eosin. The stained cells were photographed and counted. The number of migrating cells was averaged from 3 wells. […]

Data set [3] has as its system yeast thioredoxin (Trx) / yeast thioredoxin reductase (TR) system. The data set is described as follows: Peroxidase activity assay (hydrogen peroxide reduction), Trx/TR system. The class given is biochemical. The method, then: (§2) The peroxidase activity assay for the epidithiodioxopiperazine derivatives according to the present invention (hereinafter, referred to as ETP compounds) was performed according to known methods [Korean Patent No. 10-0953326]. A standard peroxidase reaction for spectrophotometric assay was carried out using a 200 μl reaction mixture of 1 mM EDTA-containing 50 mM Hepes-NaOH buffer solution (pH 7.0) including 250 μM NADPH, 3 μM yeast thioredoxin (Trx), 1.5 μM yeast thioredoxin reductase (TR), 25 μM ETP compound and […] of hydrogen peroxide. For the comparison with a glutathione (GSH)-dependent peroxidase reaction, GSH (1 mM) and yeast glutathione reductase (GSH reductase; GR) (1 Unit) were added instead of yeast Trx and TR. Each reaction was initiated by adding hydrogen peroxide, and the NADPH oxidation was monitored for 12 minutes at 30° C. according to absorbance decrease at 340 nm using an Agilent UV8453 spectrophotometer (Hewlett Packard, USA). The initial reaction rate was calculated using the linear portion of the curve and expressed as the amount of NADPH oxidized per minute.
The chemical feature of the epidithiodioxopiperazine compound of the present invention or its derivatives is the intramolecular disulfide bridge present in the epidithiodioxopiperazine ring moiety. Cellular peroxidase reduces hydrogen peroxide utilizing the electrons derived from NADPH via two electron-transfer routes, that is, Trx/TR or GSH/GR, therefore, spectrophotometric assay was performed for the hydrogen peroxide-reducing activity in the presence of each system, and the results are shown in FIGS. 1 to 5.

For the next data set, the system named is B16F10 melanoma cells. Put plainly: Metastasis of B16F10 melanoma cells to lung in mouse. The class given is in vivo. As to conditions: i.p. 5 times over 10 days after i.v. injection of B16F10 cells. How it is done:
After B16F10 cells were temporarily transfected with PrxII siRNA for 24 hours and trypsinized, the cells were resuspended in a Hank's balanced salt solution (HBSS). The cell suspension was injected by intravenous injection to a C57/BL6 mouse (1×10^6 cells per mouse). The mouse was sacrified after 10 days, and the lung was removed after transcardia perfusion-fixation with a heparinized saline solution including 3.7% formaldehyde. The removed lung was paraffin embedded and sectioned using a rotary microtome (Leica RM2255). Two serial tissue sections (4 μm in thickness) were stained with haematoxylin and eosin. The melanoma tumor nodules metastasized from the surface of the lung and the HE-stained tissue sections were counted. In order to verify the effects of gliotoxin (GT), chaetocin and chetomin, the melanoma cells were intravenously injected to the C57/BL6 mouse, and then gliotoxin (300 mg/kg) was intraperitoneally injected for 5 times over 10 days.

Data set [4] has as its system GSH / yeast glutathione reductase (GR) system. Put plainly: Peroxidase activity assay (hydrogen peroxide reduction), GSH/GR system. To be noted: 25 μM ETP compound, GSH 1 mM, GR 1 Unit. The class given is biochemical. How it is done:
as §2
The chemical feature of the epidithiodioxopiperazine compound of the present invention or its derivatives is the intramolecular disulfide bridge present in the epidithiodioxopiperazine ring moiety. […]

With `CC(=O)N[C@@H](CS)C(=O)O` [N-acetylcysteine], the “VEGF-dependent activation of VEGFR2 and ERK” value in the data set on VEGFR2 and ERK was “did not induce”.
Regarding `CN1C(=O)[C@@]23C[C@]4([C@]56C[C@@]78SS[C@@](CO)(C(=O)N7[C@H]5Nc5ccccc56)N(C)C8=O)c5ccccc5N[C@@H]4N2C(=O)[C@]1(CO)SS3` [chaetocin], the “relative toxicity to HASMCs” value in [1] is reported as “relatively less toxic”. Further, the “toxicity (cell viability)” value in the data set on SK-MEL28 melanoma cells is “toxicity was not shown”. For the same compound, the NOX activity entry in the data set on NADPH oxidase (NOX) was “did not inhibit”. Also, the “relative toxicity to HAECs” value in data set [2] was “relatively less toxic”.
Turning to `CN1C(=O)[C@]2(Cc3cn([C@]45C[C@@]67SS[C@@](CO)(C(=O)N6[C@H]4Nc4ccccc45)N(C)C7=O)c4ccccc34)SS[C@@]1(CO)C(=O)N2C` [chetomin], the “toxicity (cell viability)” value with SK-MEL28 melanoma cells was “toxicity was not shown”. Further, the “proliferation and migration responding to serum stimulation, SK28” value in the data set on SK-MEL-28 (SK28) cells is recorded as “effectively impeded”. For the same compound, the “activity in the presence of a Trx/TR system relative to the activity of GT” value in data set [3] is recorded as “approximately two-fold higher”. Moreover, the “hydrogen peroxide-reducing activity in the presence of a Trx/TR system” value in data set [3] (25 μM ETP compound, 30° C., NADPH oxidation at 340 nm) was found to be 8.62 ± 0.51 nmol/min. Besides, in the data set on B16F10 melanoma cells, the “metastasis of B16F10 melanoma cells to lung (tumor nodules)” value is “significantly reduced”. Moreover, in data set [4], the “hydrogen peroxide-reducing activity in the presence of a GSH/GR system” value came out at 2.53 ± 0.79 nmol/min.
Regarding `COc1ccc(O)c(C(C)(C)C)c1` [butylated hydroxyanisole], the “VEGF-dependent activation of VEGFR2 and ERK” value with VEGFR2 and ERK is “did not induce”.
